Measured values taken from ChEMBL document CHEMBL1781972, “Daphnane-type diterpenoids from Trigonostemon howii” (J Nat Prod, 2011).

Tested on: HL-60
Test: Cytotoxicity against human HL60 cells after 72 hrs by MTT method
Format: functional, cell-based
Conditions: HL-60, 72 h

Row | SMILES | IC50
1 | C=C(C)[C@@]1(O)[C@@H]2OC3(c4ccccc4)O[C@H]1[C@@H](C)[C@@]1(O3)[C@H]2[C@H](OC(C)=O)[C@@](C)(OC(=O)c2ccccc2)[C@@H](O)[C@@]2(OC(C)=O)[C@H]1C[C@H](C)[C@@H]2OC(C)=O [TRIGOHOWNIN A] | 17 µM
2 | C=C(C)[C@@]12OC3(c4ccccc4)O[C@@H]1[C@@H]1[C@H](OC(C)=O)[C@@](C)(O)[C@@H](OC(C)=O)[C@@]4(OC(=O)c5ccccc5)[C@@H](C[C@H](C)[C@@H]4OC(C)=O)[C@@]1(O3)[C@H](C)[C@@H]2OC(C)=O [TRIGOHOWNIN D] | 9.3 µM
